Source: US4973587A, “3-arylcarbonyl-1-aminoalkyl-1H-indole-containing antiglaucoma method” (Sterling Drug Inc., priority 1990, dated 1990)

Assays:
mouse vas deferens = mouse vas deferens test (MVD); type: cell-based; details: inhibition of contractions in mouse vas deferens preparation in vitro, active at 5.0 μM or less
Text: (§1) Med. Assoc. 217, 1392 (1971)]. […] Opth 7, 921-923 (1975); Green and Pederson, Effect of delta-9 Tetrahydrocannabinol on Aqueous Dynamics and Ciliary Body Permeability in the Rabbit Eye., Exptl. Eye Research 15, 499-507 (1973); Colasanti, Craig and Allara, Intraocular Pressure, Ocular Toxicity and Neurotoxicity after Administration of Cannabinol or Cannibigerol, Exptl. Eye Research 39, 252-259 (1984)]. Similarly, synthetic cannabinoids also reduce intraocular pressure [Green, Symunds, Oliver and Elijah, Intraocular Pressure Following Systemic Administration of Cannabinoids, Curr. Eye Research 2, 247-253 (1982); Tiedeman, Shields, Weber, Crow, Coccetto, Harris and Howes, Ophthalmology., 88, 270-277 (1981); Colasanti et al., supra]. Cannabinoid receptor binding sites can be defined as those to which radio-labelled 4-(1,1-dimethylheptyl)-2,3'-dihydroxy-6'alpha-(3-hydroxypropyl)-1',2',3',4',5',6'-hexahydrobiphenyl (CP 55940) binds in a specific and saturable manner, and the binding sites are heterogeneously distributed in the brain [Devane, Dysarz, Johnson, Melvin and Howlett, Determination and Characterization of a Cannabinoid Receptor in Rat Brain, Molecular Pharm. 34, 605-613 (1988)]. Natural and synthetic cannabinoids and representative examples of the compounds of the present invention bind to CP 55940 binding sites. […] It is believed that agonist activity at the cannabinoid receptor mediates the anti-glaucoma actions of cannabinoids, and that agonist activity at this receptor correlates with ocular pressure lowering actions in man.

[1] = target: T1, cannabinoid receptor (CP 55940 binding sites) (Rattus norvegicus, UniProt P20272); test: CP55490 binding assay (CP); details: for inhibition at 1 µM: read-out: CP % I; for IC50: CP55490 binding assay
T1 construct: from tissue
T1 sequence (P20272 whole entry): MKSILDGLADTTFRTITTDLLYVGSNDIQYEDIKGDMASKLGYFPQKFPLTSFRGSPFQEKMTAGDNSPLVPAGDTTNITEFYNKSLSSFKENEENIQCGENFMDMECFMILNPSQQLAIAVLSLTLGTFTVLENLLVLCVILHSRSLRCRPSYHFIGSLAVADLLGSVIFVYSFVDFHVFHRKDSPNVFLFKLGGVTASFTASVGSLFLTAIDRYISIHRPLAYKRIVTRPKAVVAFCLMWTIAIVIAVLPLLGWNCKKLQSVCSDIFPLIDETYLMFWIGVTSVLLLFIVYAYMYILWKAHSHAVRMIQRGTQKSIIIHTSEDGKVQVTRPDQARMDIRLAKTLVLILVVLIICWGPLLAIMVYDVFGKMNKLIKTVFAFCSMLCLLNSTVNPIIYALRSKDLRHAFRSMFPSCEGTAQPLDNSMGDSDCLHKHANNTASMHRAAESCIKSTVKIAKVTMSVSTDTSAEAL
Text: as §1

intraocular pressure = details: topical application or systemic injection; cited from earlier work

| SMILES | IC50 (mouse vas deferens; Mus musculus) [nM] | further results |
| --- | --- | --- |
| COc1ccc(C(=O)c2cn(CCN3CCOCC3)c3ccccc23)cc1 [Example 1A, 3-(4-methoxybenzoyl)-1-[2-(4-morpholinyl)ethyl]1H-indole methanesulfonate monohydrate] | 100 | inhibition at 1 µM [1]: 59% |
| Cc1c(C(=O)c2cccc3ccccc23)c2ccccc2n1CCN1CCOCC1 [Example 1AP] | 15 | IC50 [1]: 51 nM |
| COc1ccc(C(=O)c2c(C)n(CCN3CCOCC3)c3ccccc23)cc1 [Example 1B] |  | IC50 (mouse vas deferens): 500 nM; IC50 [1]: 3000 to 10000 nM |
| COc1ccc(C(=O)c2c(C)n(CCN3CCOCC3)c3ccccc23)c(OC)c1OC [Example 1CA] | 70 | inhibition at 1 µM [1]: 70% |
| Cc1c(C(=O)c2csc3ccccc23)c2ccccc2n1CCN1CCOCC1 [Example 1Q] | 18 | IC50 [1]: ~50 nM |
| Cc1c(C(=O)c2ccccc2F)c2ccccc2n1C(C)CN1CCOCC1 (centres unmarked) [Example 2C] |  | IC50 (mouse vas deferens): 490 nM |
| CC(CN1CCOCC1)n1cc(C(=O)c2ccccc2F)c2ccccc21 (centres unmarked) [Example 2E] | 2400 |  |
| COc1ccc(C(=O)c2c(C)n(C(C)CN3CCOCC3)c3ccccc23)cc1 (centres unmarked) [Example 2G] | 1300 |  |
| Cc1cccc2c(C(=O)c3ccccc3)cn(C(C)CN3CCOCC3)c12 (centres unmarked) [Example 2H] | 177 |  |
| Cc1ccccc1C(=O)c1c(C)n(CCN2CCOCC2)c2ccccc12 [Example 2K] | 710 |  |
| Cc1c(C(=O)c2coc3ccccc23)c2ccccc2n1CCN1CCOCC1 [Example 2N] | 52 |  |
| COc1ccc(C(=O)c2c(Cl)n(CCN3CCOCC3)c3ccccc23)cc1 [Example 2Q] | 176 |  |
| Cc1c(C(=O)c2cccc3ccccc23)c2ccccc2n1C(C)CN1CCOCC1 (centres unmarked) [Example 2Y] | 10 |  |
| O=C(c1cccc2ccccc12)c1cn(CCN2CCOCC2)c2ccccc12 [Example 2Z] | 6 | IC50 [1]: 88 nM |
| Cc1c(C(=O)c2cccc3ccccc23)c2ccccc2n1CCN1CCCCC1 [Example 3A, 2-methyl-3-(1-naphthylcarbonyl)-1-[2-(1-piperidinyl)ethyl]-1H-indole] | 66 |  |
| COc1ccc(C(=O)c2c(C)n(CCN3CCCC(O)C3)c3ccccc23)cc1 (centres unmarked) [Example 3B] | > 10000 |  |

| SMILES | IC50 (mouse vas deferens; Mus musculus) [nM] | further results |
| --- | --- | --- |
| Cc1c(C(=O)c2cccc3ccccc23)c2ccccc2n1CCN1CCCC(O)C1 (centres unmarked) [Example 3D] | 236 | IC50 [1]: 200 to 500 nM |
| Cc1c(C(=O)c2cccc3ccccc23)c2ccccc2n1CCN1CCOC(C)C1 (centres unmarked) [Example 3E] | 210 |  |
| CCN(CC)CCCn1c(C)c(C(=O)c2ccc(OC)cc2)c2ccccc21 [Example 3J] | > 10000 |  |
| Cc1c(C(=O)c2cccc3ccccc23)c2ccccc2n1CCN1CCOCC1C (centres unmarked) [Example 3K] | 30 |  |
| Cc1c(C(=O)c2cccc(N)c2)c2ccccc2n1CCN1CCOCC1 [Example 4A, 2-methyl-3-(3-aminobenzoyl)-1-[2 (4-morpholinyl)ethyl]-1H-indole] | 700 |  |
| Cc1c(C(=O)c2ccc(N)cc2)c2ccccc2n1CCN1CCOCC1 [Example 4B, 2-methyl-3-(4-aminobenzoyl)-1-[2-(4morpholinyl)ethyl]-1H-indole] | 520 |  |
| Cc1c(C(=O)c2cccc(O)c2O)c2ccccc2n1CCN1CCOCC1 [Example 5A, 2-methyl-3-(2,3-dihydroxybenzoyl)-1-[2-(4-morpholinyl)ethyl]-1H-indole] | 180 |  |
| O=C(c1cccc2ccccc12)c1cn(CCN2CCOCC2)c2ccc(O)cc12 [Example 5B, 5-hydroxy-3-(1-naphthylcarbonyl)-1-[2-(4-morpholinyl)ethyl]-1H-indole] | 20 |  |
| COc1ccc(C(=O)c2cn(CCN3CCOCC3)c3c(O)cccc23)cc1 [Example 5C, 7-hydroxy-3-(4-methoxybenzoyl)-1-[2-(4-morpholinyl)ethyl]-1H-indole] | 400 |  |
| Cc1c(C(=O)c2ccc(C#N)c3ccccc23)c2ccccc2n1CCN1CCOCC1 [Example 7A, 2-methyl-3-(4-cyano-1-naphthylcarbonyl)-1-[2-(4-morpholinyl)ethyl]-1H-indole] | 14 |  |
| Cc1c(C(=O)c2ccc(-n3ccnc3)c3ccccc23)c2ccccc2n1CCN1CCOCC1 [Example 7B] | 5 |  |
| O=C(c1ccc(-n2ccnc2)c2ccccc12)c1cn(CCN2CCOCC2)c2ccccc12 [Example 7C] | 8 |  |
| N#Cc1ccc(C(=O)c2cn(CCN3CCOCC3)c3ccccc23)c2ccccc12 [Example 7D] | 5 |  |
| COc1ccc(C(=S)c2c(C)n(CCN3CCOCC3)c3ccccc23)cc1 [Example 9, 2-methyl-3-(4-methoxyphenylthiocarbonyl)-1-[2-(4-morpholinyl)-ethyl]-1H-indole] | 110 |  |
| CCCCCc1cc(O)c2c(c1)OC(C)(C)[C@@H]1CCC(C)=C[C@@H]21 [delta-9 tetrahydrocannabinol] |  | intraocular pressure (intraocular pressure): reduces intraocular pressure |
